What was measured:
T. reesei Rut-C30 [1] = test: Northern analysis of transcript levels in treated T. reesei cultures; settings: for Expression of the short form of hac1 mRNA: normalised with total hac1 signal
Description: T. reesei strain Rut-C30 (Montenecourt & Eveleigh, 1979) was cultivated on minimal medium ((H4)2SO4 7.6 g l^−1, KH2PO4 15.0 g l^−1, MgSO4.7H2O 0.5 g l^−1, CaCl2.H2O 0.2 g l^−1, CoCl2 3.7 mg l^−1, FeSO4.7H2O 5 mg l^−1, ZnSO4.7H2O 1.4 mg l^−1, MnSO4.7H2O 1.6 mg l^−1, pH adjusted to 5.2 with KOH) that contained lactose 20 g l^−1 as a carbon source. Spore suspension with 2×10^7 spores (stored in −80° C. in 20% glycerol) was inoculated into 200 ml of the medium, grown in shake flasks at 28° C. with shaking at 210 rpm. After 4 days of cultivation the cultures were diluted 1/10 into fresh medium, grown further for 24 h, and treated either with 10 mM dithiothreitol (DTT), 50 μg/ml brefeldin A (BFA) or 5 μM Ca^2+-ionophore A23187. A corresponding volume of the solvent of the stock solution was added into the untreated control cultures (0.2% and 0.5% DMSO for the control cultures for A23187 and BFA treatment, respectively, and double distilled water for the control for DTT treatment).
For the Northern analysis mycelial samples were collected from cultures treated with DTT, BFA or A23187 and from the untreated control cultures after 0, 15, 30, 60, 90, 120, 240 and 360 minutes of the treatment. The first sample (the time point 0 min was withdrawn immediately before addition of DTT, BFA or A23187). The mycelium was filtered, washed with equal volume of 0.7% NaCl, frozen immediately in liquid nitrogen, and stored at −80° C. Total RNA was isolated using the Trizol™ Reagent (Gibco BRL) essentially according to manufacturer's instructions. Northern blotting and hybridisation was carried out according to standard procedures (Sambrook et al). Full-length cDNA of the genes were used as probes.
Northern analysis of the samples collected during the treatment with A23187, DTT or BFA was carried out to study the effect of the treatments at transcriptional level.

T. reesei Rut-C30 [2] = test: Metabolic labelling (35S-methionine): total protein synthesis and secretion in treated T. reesei cultures; format: cell-based, Trichoderma reesei; settings: percentage of non-treated control cultures, 5 μM A23187, 50 μg/ml BFA or 10 mM DTT; for Total protein secretion rate: TCA insoluble radioactivity in culture supernatant
T. reesei Rut-C30 [3] = test: Synthesis and secretion of labelled CBHI (2D gel, phosphorimager) in treated T. reesei cultures; format: cell-based, Trichoderma reesei; settings: for CBHI synthesis rate / CBHI secretion rate: percentage of non-treated control cultures; for CBHI secretion rate: production into culture medium; for Minimum secretion time of CBHI: untreated cells 11 min
Description: Proteins were metabolically labelled with ^35S-methionine using the methods described in (Pakula et al. 2000). The preparation of the samples and analysis of the labelled proteins were carried out essentially as in (Pakula et al. 2000). The labelling experiment was started after 10 min of addition of DTT or A23187 or after 15 min of addition of BFA. 1 mCi of [^35S]-methionine (Amersham S J 1015, in vivo cell labelling grade, 1000 Ci mmol^−1, 10 μCi μl^−1) was added to a 50 ml aliquot of the cultivation. Untreated cultures were labelled in parallel and in a similar manner. Samples of 2 ml were collected during a time course. Labelled total protein in cell extracts and culture supernatant was measured using scintillation counting of TCA insoluble material in the samples, and labelled specific proteins (e.g. CBHI) were analysed using 2D gel electrophoresis, and the proteins were quantified using a phosphorimager (Molecular Dynamics). The rates of protein synthesis and secretion, and the average synthesis time and minimum secretion time were determined as described in Pakula et al. 2000.
The effect of the treatments on the synthesis of extracellular proteins, specifically, and on their transport was studied using the major cellulase produced by the fungus, cellobiohydrolase I (CBHI), as a model protein. […] The effect of the treatment with the ionophore A23187 on protein transport was less pronounced. Formation of the full pI pattern of CBHI was delayed by 15-20 minutes compared to the control cells, and CBHI with full pattern of the pI forms was secreted into the culture medium but with a delay.
The labelled CBHI from samples of cell extract and culture supernatant at different time points of the labelling experiment was analysed in 2D gels and quantified using a phosphorimager (Molecular Dynamics). Parameters, such as the synthesis and secretion rate of CBHI (the amount of labelled protein produced per time unit) as well as the average synthesis time and the minimum secretion time of CBHI, were determined (for the method see Pakula et al. 2000). The quantification of the labelled CBHI during the labelling experiment is shown in FIG. 3, and the deduced parameters describing the synthesis and secretion of CBHI in these conditions are summarised in the Table 1. The average synthesis time of full-length CBHI was not affected in the DTT and BFA treated cultures, being in accordance with the result that total protein synthesis is not affected by these treatments (see above).

A. niger AB4.1 = test: Northern analysis of transcript levels in DTT treated A. niger cultures; format: cell-based, Aspergillus niger; settings: 20 mM DTT
Description: The Aspergillus niger strains used in the experiments were AB4.1 (van Hartingsveldt et al., 1987) and AS1.1 (Ngiam et al., 2000). Spores resuspended in 0.1% Tween 20 (Sigma, UK) were used to inoculate liquid cultures to a final density of 1×10^5 spores per ml of medium. The strains were maintained on potato dextrose agar slopes (Difco, USA) with a supplement of 10 mM uridine for A. niger AB4.1. Slopes were grown at 30° C. until they had sporulated and made fresh for each experiment. ACMS/N/P medium (Archer et al., 1990) was used for all the experiments involving liquid culture. A. niger AB4.1 cultures were again supplemented with 10 mM uridine. Cultures were grown in 100 ml aliquots of medium in 250 ml conical flasks at 25° C. and 150 rpm. In the DTT stress experiments, AB4.1 cultures were grown for 44 hours before addition of 1 ml of 2M DTT solution to give a final concentration of 20 mM. […]
Total RNA was extracted from 100 mg of freeze dried, ground mycelia using the RNeasy Plant Mini Kit (Qiagen, UK) according to the manufacturer's instructions. RNA was quantified by reading absorbances at 230, 260 and 280 nm on a Uvikon 850 spectrophotometer (Kontron Instruments, UK). Ratios of over 2.0 for the 260 nm:280 nm readings were accepted as being indicative of good quality RNA. RNA quality was also assessed by running samples on 7% formaldehyde gels (Sambrook et al., 1989). […]

[4] = 5 μM A23187, 50 μg/ml BFA or 10 mM DTT

Row | SMILES | Expression level of sar1 and ypt1 (T. reesei Rut-C30 [1]; 10 mM DTT) | Transcript level of xyn1 and hfb2 (T. reesei Rut-C30 [1]; 10 mM DTT) | Expression of the short form of hac1 mRNA (T. reesei Rut-C30 [1]) | Total protein secretion rate (T. reesei Rut-C30 [2]) | CBHI synthesis rate (T. reesei Rut-C30 [3]; [4]) | CBHI secretion rate (T. reesei Rut-C30 [3]; [4]) | pdiA and bipA mRNA response (A. niger AB4.1) | Levels of pepA mRNA (A. niger AB4.1; control cultures show an increase) | Total protein synthesis rate (T. reesei Rut-C30 [2]; TCA insoluble radioactivity in cell extracts) | Delay of formation of the full pI pattern of CBHI compared to the control cells (T. reesei Rut-C30 [3]; 5 μM A23187) | Increase of minimum secretion time of CBHI compared to the control cultures (T. reesei Rut-C30 [3]; 5 μM A23187) | Prolongation of synthesis time of CBHI compared to the control cultures (T. reesei Rut-C30 [3]; 5 μM A23187) | Average time of CBHI synthesis (T. reesei Rut-C30 [3]; untreated cells 5.7 min, 5 μM A23187, 50 μg/ml BFA or 10 mM DTT) | Minimum secretion time of CBHI (T. reesei Rut-C30 [3]; [4])
1 | O[C@H](CS)[C@H](O)CS (racemic) [DTT, dithiothreitol] | not affected | reduced | expression of the shortened, actively translated form | 5% | 4-24% | no production of labelled CBHI into the culture medium was detected | rapid response | no significant increase |  |  |  |  |  | 
2 | CNc1ccc2oc(C[C@H]3O[C@@]4(CC[C@H]3C)O[C@H]([C@H](C)C(=O)c3ccc[nH]3)[C@H](C)C[C@H]4C)nc2c1C(=O)O [A23187] |  |  | transient and rather weak expression | 23% | 26% | 27% |  |  | 51% | 15-20 minutes | 10 min | 3 to 4 min | 9 min | 21 min
3 | C[C@H]1CCC/C=C/[C@@H]2C[C@H](O)C[C@H]2[C@H](O)/C=C/C(=O)O1 [BFA, brefeldin A] |  |  | expression of the shortened, actively translated form | 5% | 52% | 4% |  |  |  |  |  |  |  | 69 min

From patent US20040115790A1, “Method for production of secreted proteins in fungi” (priority 2001, published 2004)
